Source: ChEMBL document CHEMBL1137284, “Farnesoid X-activated receptor antagonists from a marine sponge Spongia sp” (Bioorg Med Chem Lett, 2006)

How the values were obtained:
Bile acid receptor = molecular target: T1, Bile acid receptor (Homo sapiens, UniProt Q96RI1); test: Antagonist activity against FXR assessed as transactivation of luciferase reporter gene in CV1 cells; type: functional, cell-based, CV-1
T1 sequence (Q96RI1 whole entry): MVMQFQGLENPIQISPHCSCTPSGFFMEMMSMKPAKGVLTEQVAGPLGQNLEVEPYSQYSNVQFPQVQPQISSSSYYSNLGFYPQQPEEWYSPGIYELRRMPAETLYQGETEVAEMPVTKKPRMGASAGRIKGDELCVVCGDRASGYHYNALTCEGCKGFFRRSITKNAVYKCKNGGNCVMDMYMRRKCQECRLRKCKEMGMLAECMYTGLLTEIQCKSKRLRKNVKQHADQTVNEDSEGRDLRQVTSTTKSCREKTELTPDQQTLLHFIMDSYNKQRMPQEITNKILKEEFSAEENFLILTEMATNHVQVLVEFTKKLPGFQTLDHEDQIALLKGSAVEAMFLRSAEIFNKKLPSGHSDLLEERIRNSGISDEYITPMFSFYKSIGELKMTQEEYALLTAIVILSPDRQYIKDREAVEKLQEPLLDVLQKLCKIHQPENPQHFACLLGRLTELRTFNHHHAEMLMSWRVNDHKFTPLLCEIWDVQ

[1] = Cytotoxicity against CV1 cells transfected with human FXR by MTT method; type: cell-based; conditions: CV-1

## CC(=O)OC[C@@]12CCC3C(C)(C)CCC[C@]3(C)C1C[C@@H](OC(C)=O)[C@@]1(C)C2CC=C2CO[C@@H](O)[C@@H]21 (stereo not given in full)
Bile acid receptor
  IC50: 8.1 µM
[1]
  IC50: 32.7 µM

## CC(=O)OC[C@@]12CCC3C(C)(C)CCC[C@]3(C)C1C[C@@H](O)[C@@]1(C)C2CC=C2CO[C@@H](O)[C@@H]21 (stereo not given in full)
Bile acid receptor
  IC50: 25.3 µM
[1]
  IC50: 29.2 µM

## CC(=O)O[C@@H]1CC2[C@@]3(C)CCCC(C)(C)C3CC[C@@]2(C)C2CC=C3CO[C@@H](O)[C@@H]3[C@]21C (stereo not given in full)
Bile acid receptor
  IC50: 81.1 µM
[1]
  IC50: 98.5 µM

## CC1(C)CCC[C@@]2(C)C1CC[C@]1(CO)C2C[C@@H](O)[C@@]2(C)C1CC=C1CO[C@@H](O)[C@@H]12 (stereo not given in full)
Bile acid receptor
  IC50: 64.5 µM
[1]
  IC50: > 100 µM

## CO[C@@H]1OCC2=CCC3[C@]4(C)CCC5C(C)(C)CCC[C@]5(C)C4C[C@@H](O)[C@]3(C)[C@H]21 (stereo not given in full)
Bile acid receptor
  IC50: 24.8 µM
[1]
  IC50: 86.9 µM
